Assay [1] concerns the target Tyrosine-protein kinase JAK2 (Homo sapiens, UniProt O60674). As to the kind of experiment: Inhibition of JAK2 (unknown origin).
Assay [2] deals with Cytochrome P450 3A5 (Homo sapiens, UniProt P20815). As to the kind of experiment: Inhibition of CYP3A5 (unknown origin). In kind it is ADME.
Assay [3] addresses 3',5'-cyclic-AMP phosphodiesterase 4B (Homo sapiens, UniProt Q07343). The assay can be described thus: Inhibition of PDE4B (unknown origin).
For assay [4], the target named is Phosphodiesterase 4 (Homo sapiens, UniProt P27815+Q08499+Q07343+Q08493). As to the kind of experiment: Inhibition of PDE4 (unknown origin). The class given is protein assay.
Assay [5] concerns the target Sphingosine 1-phosphate receptor 1 (Homo sapiens, UniProt P21453). The assay can be described thus: Agonist activity at S1P1 (unknown origin) by HTRF assay. The class given is functional. A general note: In TR-FRET formats the signal depends on donor and acceptor labels being close together.

Chain of Tyrosine-protein kinase JAK2 (O60674 whole entry): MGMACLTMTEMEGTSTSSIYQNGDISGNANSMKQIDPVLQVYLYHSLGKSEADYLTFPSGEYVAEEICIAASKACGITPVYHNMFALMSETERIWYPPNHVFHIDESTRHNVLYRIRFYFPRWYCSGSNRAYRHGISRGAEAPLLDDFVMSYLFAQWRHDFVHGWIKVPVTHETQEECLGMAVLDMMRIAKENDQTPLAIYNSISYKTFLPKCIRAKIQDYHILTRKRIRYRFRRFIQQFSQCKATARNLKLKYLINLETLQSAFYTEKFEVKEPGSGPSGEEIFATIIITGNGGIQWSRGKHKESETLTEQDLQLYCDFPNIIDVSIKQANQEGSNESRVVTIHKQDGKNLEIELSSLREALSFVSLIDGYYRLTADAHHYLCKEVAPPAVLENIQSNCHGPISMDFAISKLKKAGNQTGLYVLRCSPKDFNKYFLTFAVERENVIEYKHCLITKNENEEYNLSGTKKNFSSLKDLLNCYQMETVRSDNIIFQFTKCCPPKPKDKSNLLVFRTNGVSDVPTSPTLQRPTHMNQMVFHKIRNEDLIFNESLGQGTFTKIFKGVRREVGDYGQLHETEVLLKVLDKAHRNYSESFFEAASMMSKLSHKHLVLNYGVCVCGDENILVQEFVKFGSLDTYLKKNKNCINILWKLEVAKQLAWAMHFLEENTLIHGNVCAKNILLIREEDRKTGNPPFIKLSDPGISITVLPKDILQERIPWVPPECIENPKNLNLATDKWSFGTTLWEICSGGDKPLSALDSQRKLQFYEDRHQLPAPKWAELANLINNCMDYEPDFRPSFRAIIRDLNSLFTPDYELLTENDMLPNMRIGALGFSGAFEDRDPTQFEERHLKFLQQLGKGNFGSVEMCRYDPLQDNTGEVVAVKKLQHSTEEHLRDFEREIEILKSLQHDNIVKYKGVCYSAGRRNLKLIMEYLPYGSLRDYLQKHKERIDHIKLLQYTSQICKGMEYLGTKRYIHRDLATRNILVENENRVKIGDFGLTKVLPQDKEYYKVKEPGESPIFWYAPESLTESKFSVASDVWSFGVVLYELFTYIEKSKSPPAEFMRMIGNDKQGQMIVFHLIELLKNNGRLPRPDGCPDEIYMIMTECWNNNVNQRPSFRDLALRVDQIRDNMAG
Chain of 3',5'-cyclic-AMP phosphodiesterase 4B (Q07343 whole entry): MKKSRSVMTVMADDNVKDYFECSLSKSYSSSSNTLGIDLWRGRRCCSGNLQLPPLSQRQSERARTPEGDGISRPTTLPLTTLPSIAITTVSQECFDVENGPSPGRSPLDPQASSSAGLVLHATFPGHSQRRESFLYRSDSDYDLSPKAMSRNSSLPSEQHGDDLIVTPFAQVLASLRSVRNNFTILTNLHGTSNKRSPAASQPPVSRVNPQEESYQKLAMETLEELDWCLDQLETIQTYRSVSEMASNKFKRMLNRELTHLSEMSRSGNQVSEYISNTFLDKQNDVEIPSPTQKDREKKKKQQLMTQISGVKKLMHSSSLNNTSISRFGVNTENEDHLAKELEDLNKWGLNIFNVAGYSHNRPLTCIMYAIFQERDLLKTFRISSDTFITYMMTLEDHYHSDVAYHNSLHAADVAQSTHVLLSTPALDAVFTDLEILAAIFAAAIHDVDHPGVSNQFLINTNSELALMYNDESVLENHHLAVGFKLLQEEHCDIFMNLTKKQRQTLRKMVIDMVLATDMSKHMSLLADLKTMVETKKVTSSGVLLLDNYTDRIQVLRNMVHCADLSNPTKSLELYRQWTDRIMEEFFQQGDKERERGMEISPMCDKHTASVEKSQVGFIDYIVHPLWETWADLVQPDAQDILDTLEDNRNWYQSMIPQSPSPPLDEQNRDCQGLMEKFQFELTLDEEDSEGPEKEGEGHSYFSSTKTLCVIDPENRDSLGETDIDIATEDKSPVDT
Chain of Sphingosine 1-phosphate receptor 1 (P21453 whole entry): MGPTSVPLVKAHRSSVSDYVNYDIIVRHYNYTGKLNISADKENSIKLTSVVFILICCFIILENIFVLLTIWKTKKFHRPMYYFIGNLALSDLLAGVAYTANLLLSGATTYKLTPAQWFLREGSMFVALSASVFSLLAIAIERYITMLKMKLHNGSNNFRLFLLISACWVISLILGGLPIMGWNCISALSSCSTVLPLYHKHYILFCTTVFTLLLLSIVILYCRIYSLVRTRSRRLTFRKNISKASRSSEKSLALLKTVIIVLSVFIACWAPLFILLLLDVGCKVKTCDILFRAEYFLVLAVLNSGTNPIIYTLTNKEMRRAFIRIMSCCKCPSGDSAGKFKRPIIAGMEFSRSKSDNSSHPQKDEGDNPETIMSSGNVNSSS
Chain of Cytochrome P450 3A5 (P20815 whole entry): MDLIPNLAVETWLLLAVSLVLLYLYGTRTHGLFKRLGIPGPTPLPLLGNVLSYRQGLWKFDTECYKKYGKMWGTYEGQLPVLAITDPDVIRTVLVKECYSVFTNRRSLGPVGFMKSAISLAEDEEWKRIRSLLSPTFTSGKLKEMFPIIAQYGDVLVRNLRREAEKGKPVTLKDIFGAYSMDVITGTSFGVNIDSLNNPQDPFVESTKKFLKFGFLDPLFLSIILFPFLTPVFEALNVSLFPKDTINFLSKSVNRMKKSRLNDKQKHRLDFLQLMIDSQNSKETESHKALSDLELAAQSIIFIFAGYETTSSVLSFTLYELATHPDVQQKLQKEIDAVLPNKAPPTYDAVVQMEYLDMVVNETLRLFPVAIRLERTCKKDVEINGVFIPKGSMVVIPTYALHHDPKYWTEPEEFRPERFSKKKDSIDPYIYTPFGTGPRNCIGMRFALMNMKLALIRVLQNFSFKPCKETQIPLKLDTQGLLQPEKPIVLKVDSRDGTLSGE

The term IC50 denotes the concentration at which inhibition is half-maximal. Read a high IC50 as lower potency. Compound `CCS(=O)(=O)N1CC(CC#N)C1n1cc(-c2ncnc3[nH]ccc23)cn1` (stereo not given) displayed a half-maximal inhibitory concentration (IC50) in assay [1] of 5.7 nM.
For the compound `O=C(O)CC1CCN(C(=O)c2ccc(Cl)c(Cn3ccc4cc(C(F)(F)F)cc(Cl)c43)c2Cl)CC1` [CEDIROGANT], the IC50 in assay [2] stood at 206 nM.
`COc1ccc([C@H](N2C(=O)c3cccc(NC(C)=O)c3C2=O)S(C)(=O)=O)cc1OC` had an IC50 in assay [3] of 74 nM.
Turning to `CCOc1cc([C@@H](CS(C)(=O)=O)N2C(=O)c3csc(NC(C)=O)c3C2=O)ccc1OC`, the half-maximal inhibitory concentration (IC50) in assay [4] stood at 114 nM.
Usually EC50 stands for the concentration that produces a half-maximal response. Read a high EC50 as a need for much substance. As to `CCC/N=C1/S/C(=C\c2ccc(OC[C@H](O)CO)c(Cl)c2)C(=O)N1c1ccccc1C`, the EC50 in assay [5] was 6 nM.

Values taken from ChEMBL document CHEMBL6103568, “An overview of small-molecule agents for the treatment of psoriasis” (Bioorg Med Chem, 2025).
